Measurements from US12479830B2, “Homopiperazinyl and homopiperidinyl quinazolin-4(3H)-one derivatives having multimodal activity against pain” (ESTEVE PHARMACEUTICALS, S.A., priority 2019, dated 2025).

Experiments:
[1] = target: Human α2δ-1 subunit of Cav2.2 calcium channel (Homo sapiens, UniProt P54289); experiment: Human α2δ-1 subunit of Cav2.2 calcium channel assay ([3H]-gabapentin binding); details: binding to the α2δ-1 subunit of voltage-gated calcium channels, expressed as Ki class; + also covers inhibition between 1% and 50%
Chain of Human α2δ-1 subunit of Cav2.2 calcium channel (P54289 25-1103): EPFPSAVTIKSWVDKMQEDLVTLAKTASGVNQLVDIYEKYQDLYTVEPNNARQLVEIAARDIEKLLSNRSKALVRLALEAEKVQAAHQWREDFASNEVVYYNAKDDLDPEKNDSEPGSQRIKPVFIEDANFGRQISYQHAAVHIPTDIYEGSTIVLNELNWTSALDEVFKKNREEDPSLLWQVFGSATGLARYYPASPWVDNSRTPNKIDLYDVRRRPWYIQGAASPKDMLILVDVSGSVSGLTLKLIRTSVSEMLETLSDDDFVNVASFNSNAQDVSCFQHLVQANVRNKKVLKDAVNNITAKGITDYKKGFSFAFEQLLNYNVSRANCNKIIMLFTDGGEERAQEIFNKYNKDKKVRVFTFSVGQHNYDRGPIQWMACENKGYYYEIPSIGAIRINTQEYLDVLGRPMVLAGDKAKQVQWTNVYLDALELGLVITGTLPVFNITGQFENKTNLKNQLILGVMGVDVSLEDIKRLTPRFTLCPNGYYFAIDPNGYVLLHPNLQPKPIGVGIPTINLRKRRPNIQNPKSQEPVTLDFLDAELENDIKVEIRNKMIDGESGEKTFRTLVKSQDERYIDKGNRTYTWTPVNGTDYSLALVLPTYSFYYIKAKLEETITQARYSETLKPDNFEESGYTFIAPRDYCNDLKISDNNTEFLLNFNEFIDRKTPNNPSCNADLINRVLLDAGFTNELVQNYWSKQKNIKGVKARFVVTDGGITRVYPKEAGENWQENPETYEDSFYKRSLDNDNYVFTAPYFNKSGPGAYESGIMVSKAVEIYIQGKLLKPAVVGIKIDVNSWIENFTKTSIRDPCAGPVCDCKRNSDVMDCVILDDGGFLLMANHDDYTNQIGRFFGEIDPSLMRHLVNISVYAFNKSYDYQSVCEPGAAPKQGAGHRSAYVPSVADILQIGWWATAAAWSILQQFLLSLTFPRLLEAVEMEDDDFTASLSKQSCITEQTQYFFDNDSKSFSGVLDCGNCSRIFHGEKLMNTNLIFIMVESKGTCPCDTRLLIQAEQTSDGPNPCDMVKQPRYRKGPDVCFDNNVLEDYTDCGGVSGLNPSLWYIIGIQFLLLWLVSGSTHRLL
How it was run: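 Affinity (Ki, five concentrations) or % inhibition at 1 or 10 μM, from displacement of 15 nM [3H]-gabapentin on human α2δ-1 membranes. Incubation 60 min, 27° C., Hepes-KOH 10 mM pH 7.4; 10 μM pregabalin defined non-specific binding; bound radioactivity counted after GF/C filtration.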

Human σ1 receptor = target: T1, Human σ1 receptor (Homo sapiens, UniProt Q99720); experiment: Human σ1 receptor radioligand assay ([3H](+)-pentazocine binding); details: binding to the σ1 receptor, expressed as Ki class; + also covers inhibition between 1% and 50%
T1 construct: expressed in transfected cells; host or cells: HEK-293
T1 sequence (Q99720 whole entry): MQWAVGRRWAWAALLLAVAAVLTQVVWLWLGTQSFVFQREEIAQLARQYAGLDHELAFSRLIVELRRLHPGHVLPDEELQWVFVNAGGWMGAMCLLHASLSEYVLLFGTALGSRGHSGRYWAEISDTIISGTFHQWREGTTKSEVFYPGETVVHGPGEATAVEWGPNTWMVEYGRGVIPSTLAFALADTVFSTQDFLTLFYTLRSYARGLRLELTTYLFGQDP
How it was run: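 Ki was derived from five test concentrations, or % inhibition was measured at a single 1 or 10 μM dose, against 5 nM [3H](+)-pentazocine. Incubation was 120 min at 37° C in 50 mM Tris-HCl pH 8 with 7 μg HEK-293 membranes, and 10 μM haloperidol set non-specific binding. Bound radioactivity was counted after filtration.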

Row | Compound | Ki [1] [nM] | Ki (Human σ1 receptor) [nM]
1 | CCC[C@H](c1nc2ccc(Br)cc2c(=O)n1CC)N1CCN2CCC1CC2 [Example 66, (R)-2-(1-(1,4-diazabicyclo[3.2.2]nonan-4-yl)butyl)-6-bromo-3-ethylquinazolin-4(3H)-one] | > 5000 | > 1000
2 | CCC[C@H](c1nc2ccc(Br)cc2c(=O)n1CCC)N1CCNC[C@H](C)C1 [Example 67, 6-bromo-2-((R)-1-((S)-6-methyl-1,4-diazepan-1-yl)butyl)-3-propylquinazolin-4(3H)-one] | < 500 | > 1000
3 | CCC[C@H](c1nc2ccc(Br)cc2c(=O)n1CCC)N1CCNC[C@@H](C)C1 [Example 68, 6-bromo-2-((R)-1-((R)-6-methyl-1,4-diazepan-1-yl)butyl)-3-propylquinazolin-4(3H)-one] | < 500 | > 1000
4 | CCC[C@@H](c1nc2ccc(Br)cc2c(=O)n1CCC)N1CCNC[C@H](C)C1 [Example 69, 6-bromo-2-((S)-1-((S)-6-methyl-1,4-diazepan-1-yl)butyl)-3-propylquinazolin-4(3H)-one] | 500 to 5000 | > 1000
5 | CCC[C@@H](c1nc2ccc(Br)cc2c(=O)n1CCC)N1CCNC[C@@H](C)C1 [Example 70, 6-bromo-2-((S)-1-((R)-6-methyl-1,4-diazepan-1-yl)butyl)-3-propylquinazolin-4(3H)-one] | > 5000 | > 1000
6 | CCCC(c1nc2c(Cl)cc(F)cc2c(=O)n1CC)N1CCCNCC1 (stereo not drawn) [Example 71, 2-(1-(1,4-diazepan-1-yl)butyl)-8-chloro-3-ethyl-6-fluoroquinazolin-4(3H)-one] | > 5000 | > 1000
7 | CCCC(c1nc2ccc(F)c(F)c2c(=O)n1CC)N1CCCN(C)CC1 (stereo not drawn) [Example 72, 3-ethyl-5,6-difluoro-2-(1-(4-methyl-1,4-diazepan-1-yl)butyl)quinazolin-4(3H)-one] | < 500 | < 500
8 | CCC[C@@H](c1nc2ccc(Cl)cc2c(=O)n1CC)N1CCN(C)C[C@H](C)C1 [Example 73, 6-chloro-2-((S)-1-((S)-4,6-dimethyl-1,4-diazepan-1-yl)butyl)-3-ethylquinazolin-4(3H)-one] | > 5000 | > 1000
9 | CCC[C@@H](c1nc2ccc(Cl)cc2c(=O)n1CC)N1CCN(C)C[C@@H](C)C1 [Example 74, 6-chloro-2-((S)-1-((R)-4,6-dimethyl-1,4-diazepan-1-yl)butyl)-3-ethylquinazolin-4(3H)-one] | > 5000 | > 1000
10 | CCC[C@H](c1nc2ccc(Cl)cc2c(=O)n1CC)N1CCN(C)C[C@H](C)C1 [Example 75, 6-chloro-2-((R)-1-((S)-4,6-dimethyl-1,4-diazepan-1-yl)butyl)-3-ethylquinazolin-4(3H)-one] | < 500 | 500 to 1000
11 | CCC[C@H](c1nc2ccc(Cl)cc2c(=O)n1CC)N1CCN(C)C[C@@H](C)C1 [Example 76, 6-chloro-2-((R)-1-((R)-4,6-dimethyl-1,4-diazepan-1-yl)butyl)-3-ethylquinazolin-4(3H)-one] | < 500 | 500 to 1000
12 | CCCC(c1nc2cc(F)c(Br)cc2c(=O)n1C)N1CCCN(C)CC1 (stereo not drawn) [Example 77, 6-bromo-7-fluoro-3-methyl-2-(1-(4-methyl-1,4-diazepan-1-yl)butyl)quinazolin-4(3H)-one] | 500 to 5000 | < 500
13 | CCCC(c1nc2ccc(F)c(F)c2c(=O)n1CC)N1CCCN(CC)CC1 (stereo not drawn) [Example 78, 3-ethyl-2-(1-(4-ethyl-1,4-diazepan-1-yl)butyl)-5,6-difluoroquinazolin-4(3H)-one] | 500 to 5000 | < 500
14 | CCCC(c1nc2ccc(Cl)cc2c(=O)n1CCC)N1CCCN(CC)CC1 (stereo not drawn) [Example 79, 6-chloro-2-(1-(4-ethyl-1,4-diazepan-1-yl)butyl)-3-propylquinazolin-4(3H)-one] | < 500 | < 500
15 | CCCC(c1nc2ccc(Br)cc2c(=O)n1CC)N1CCN2CCC1CC2 (stereo not drawn) [Example 80, 2-(1-(1,4-diazabicyclo[3.2.2]nonan-4-yl)butyl)-6-bromo-3-ethylquinazolin-4(3H)-one] | > 5000 | > 1000
